Data: patent US20250340661A1, “ANTI CD40 ANTIBODY, ANTIGEN BINDING FRAGMENT AND MEDICAL USE THEREOF” (Jiangsu Hengrui Pharmaceuticals Co., Ltd., priority 2021, published 2025)

Test system: human CD40 transgenic mice
Assay: Mouse skin graft rejection model
Type: in vivo
Details: for Skin graft score: 3 mpk
Description: Male Balb/c mice, 6 weeks old, were purchased from the Laboratory Animal Management Department, Shanghai Institute of Planned Parenthood Research. Housing environment: SPF; certification number: 20180006023393.
On day −2 of the experiment, the mice were intraperitoneally injected with tacrolimus FK506 or CD40 antagonistic antibodies. On day 0 of the experiment, donor Balb/c mice and C57BL6/J mice were anesthetized with 4% chloral hydrate. The tails of the donor mice were removed, and full circles of skin, 1 cm in length, were isolated from the tails. The hair on the acceptor mice's back was removed, and an incision was made along the skin layer. An equal area of skin was removed while preserving the back fat and connective tissue. The donor skin was placed on the acceptor mice's incision site, and the incision was closed with glue. The mice were then placed back in cages to recover.
The mice were dosed according to the administration regimens in Table 17. After 7 days of recovery, the mouse skin survival was observed daily and rejection scores were recorded.

Q: Which Skin graft score (8 days, scale 3 (no rejection) to 0) does the source give for `C=CC[C@@H]1/C=C(\C)C[C@H](C)C[C@H](OC)[C@H]2O[C@@](O)(C(=O)C(=O)N3CCCC[C@H]3C(=O)O[C@H](/C(C)=C/[C@@H]3CC[C@@H](O)[C@H](OC)C3)[C@H](C)[C@@H](O)CC1=O)[C@H](C)C[C@@H]2OC` [FK506, tacrolimus, reference compound] here?
A: 2.5

Q: And the Skin graft score (10 days, scale 3 to 0)?
A: 1.5

Q: And the Skin graft score (15 days, scale 3 to 0)?
A: 0.5

Q: And the Skin graft score (20 days, scale 3 to 0)?
A: 0

Q: What about the “Skin graft survival rate (%)” value (Day 15, 3 mpk ip) of the same compound?
A: 16.7%
